# Assay results from paper PMC5369532, “NMR-filtered virtual screening leads to non-metal chelating metallo-β-lactamase inhibitors” (Chemical Science, 2016).
# Entries after “also recorded” stand apart in the source; their conditions may differ. Where two headings read alike, the source gives them in different places.
# Experiments:
# VIM-2 = target: T1, VIM-2 (Escherichia coli, UniProt Q5U7L7); assay: biochemical; type: biochemical; settings: for differences between the inhibitory activity with or without excess Zn(II): 0 μM, 1 μM and 100 μM Zn(II)
# T1 construct: made in house; host or cells: Escherichia coli
# Procedure: (§1) Except where noted, recombinant forms of NDM-1, VIM-2, SPM-1, IMP-1, and BcII MBLs were produced in Escherichia coli and assays were carried out as described previously10. The IC50 values of all the compounds for VIM-2 were determined using […]
# concentrations (0 μM, 1 μM, and 100 μM, see Fig. S8). The selectivity profiles of […]
# as described above. The inhibitory activities of these compounds against CphA (B2 […]
# MBL; IMP, Imipenemase; NDM, New Delhi MBL; TEM-1: Temomeira-type 1 […]
# b The enzyme concentrations of the purified proteins were determined by measuring Abs@280nm using a NanoDrop (ThermoFisher) spectrometer and calculated molar extinction coefficient for each sample; concentrations of diluted solutions used in the assay were calculated from the original concentration. […]
# negative controls. These were tested in same assay conditions but at 2mM instead of 100uM compound concentration. […]
# apo-VIM-2 = apo-VIM-2 (Escherichia coli, UniProt Q5U7L7); type: binding; settings: 50 μM apo enzyme, 50 μM compound, 50 mM Tris-D11 pH 7.5
# Procedure: (§2) Except where noted, recombinant forms of NDM-1, VIM-2, SPM-1, IMP-1, and BcII MBLs were produced in Escherichia coli and assays were carried out as described […]
# (§3) previously10. […]
# (§4) Nuclear Magnetic Resonance (NMR) spectra were recorded using a Bruker AVIII 600 MHz NMR spectrometer equipped with a BB-19F/1H Prodigy N2 cryoprobe using 5 mm diameter NMR tubes (Norell). Typical experimental parameters for Carr-Purcell-Meiboom-Gill (CPMG) NMR spectroscopy were: total echo time, 40 ms; […]
# (§5) The PROJECT-CPMG sequence
# (§6) (90°x−[τ−180°y−τ−90°y−τ−180°y−τ]n−acq) was applied. 15 Water suppression was achieved by pre-saturation. Data were processed with Bruker 3.1 software. Prior to […]
# (§7) Fourier transformation, data were multiplied with an exponential function with 0.5 Hz […]
# (§8) line broadening. […]
# di-Zn(II) VIM-2 = target: T2, di-Zn(II) VIM-2 (Escherichia coli, UniProt Q5U7L7); type: binding; settings: 50 μM enzyme, 50 μM Zn(II), 50 μM compound, 50 mM Tris-D11 pH 7.5
# T2 construct: made in house
# Procedure: as §2, §3, §4, §5, §6, §7, §8
# class B MBLs = assay: Selectivity profile against class B MBLs (Fig. S21); type: biochemical
# Procedure: The 1H NMR and 13C NMR spectra for compounds 34a, 34b, 34, 35a, 35b, and 35 […]
# as §1
# the FC-5 based assay10. […]
# concentrations (0 μM, 1 μM, and 100 μM, see Fig. S8). The selectivity profiles of compounds of interest against other B1 MBLs including VIM-511, VIM-110, NDM-1, SPM-1, and BcII, and TEM-112 (class A SBL) were determined using the same method as described above. The inhibitory activities of these compounds against CphA (B2 MBL)13 and L1 (B3 MBL)14 were determined using meropenem and nitrocefin, […]
# at 100 μM. The details regarding enzyme concentrations, substrate concentration are in […]
# Nuclear Magnetic Resonance (NMR) spectra were recorded using a Bruker AVIII 600 MHz NMR spectrometer equipped with a BB-19F/1H Prodigy N2 cryoprobe using 5 mm diameter NMR tubes (Norell). Typical experimental parameters for Carr-Purcell-Meiboom-Gill (CPMG) NMR spectroscopy were: total echo time, 40 ms; relaxation delay, 2 s; and number of transients, 128. The PROJECT-CPMG sequence (90°x−[τ−180°y−τ−90°y−τ−180°y−τ]n−acq) was applied. 15 Water suppression was achieved by pre-saturation. Data were processed with Bruker 3.1 software. Prior to […]
# VIM-1 = VIM-1 (Pseudomonas aeruginosa, UniProt A0A0F7KYQ8); assay: biochemical; settings: n ≥ 3
# [1] = FC-5 based assay, n ≥ 3, read-out: IC50 (VIM-2)
# [2] = FC-5 based assay, n ≥ 3, read-out: pIC50 (VIM-2) (converted)
IC50 (VIM-2; [1]),IC50 (VIM-1),Compound,further results
993 µM,–,O=C(O)C1CC(c2ccccc2F)=NO1 (stereo not shown) [Compound 2],–
> 1600 µM,–,Cc1c/c(=N\c2ccccc2C(=O)O)n2ncnc2[nH]1 [Compound 8],–
> 1600 µM,–,CC(=O)Nc1ccc(S(=O)(=O)N2CCCC2C(=O)O)cc1 (stereo not shown) [Compound 15],–
< 400 µM,–,Cc1cc(N/N=C/c2ccc(O)c(C(=O)O)c2)nc(-c2ccccc2O)n1 [Compound 20],differences between the inhibitory activity with or without excess Zn(II) (VIM-2): no obvious differences
> 400 µM,> 400 µM,O=C(O)c1cccc2c1C(=O)N(Cc1ccncc1)C2 [Compound 22],–
47.1 µM,> 400 µM,O=C(O)c1cccc2c1C(=O)N(Cc1ccccc1F)C2 [Compound 24],–
320 µM,> 400 µM,COc1ccc(CN2Cc3cccc(C(=O)O)c3C2=O)cc1OC [Compound 25],IC50 (VIM-2; [2]): 316 µM
229 µM,> 400 µM,CC(c1ccncc1)N1Cc2cccc(C(=O)O)c2C1=O (stereo not shown) [Compound 29],–
17.8 µM,> 400 µM,O=C(O)c1cccc2c1C(=O)N(c1ccccc1)C2 [Compound 30],–
39.3 µM,> 400 µM,COc1cccc(N2Cc3cccc(C(=O)O)c3C2=O)c1 [Compound 32],–
74 µM,> 400 µM,O=C(O)c1cccc2c1C(=O)N(c1ccccc1Cl)C2 [Compound 33],–
60.3 µM,> 400 µM,CN(C)Cc1ccc(N2Cc3cccc(C(=O)O)c3C2=O)cc1 [Compound 34],–
153 µM,> 400 µM,O=C(O)c1cccc2c1C(=O)N(Cc1cccs1)C2 [Compound 36],–
68.1 µM,> 400 µM,O=C(O)c1cccc2c1C(=O)N(C1CCCC1)C2 [Compound 37],–
> 400 µM,> 400 µM,O=C(O)c1cccc2c1C(=O)N(CC1CCCO1)C2 (stereo not shown) [Compound 38],–
71.9 µM,> 400 µM,O=C(O)c1cccc2c1C(=O)N(CCc1ccccc1)C2 [Compound 39],–
> 400 µM,> 400 µM,COCCCN1Cc2cccc(C(=O)O)c2C1=O [Compound 40],–
20.3 µM,> 400 µM,C=CCC1c2cccc(C(=O)O)c2C(=O)N1c1cccc(OC)c1 (stereo not shown) [Compound 42],–
> 400 µM,> 400 µM,C=CCC1c2cccc(C(=O)OC)c2C(=O)N1c1ccccc1 (stereo not shown) [Compound 43],inhibitory activity against VIM-2 (in words) (VIM-2): much lower inhibitory potency

# Further lines, the compound ahead of its results:
Compound,IC50 (VIM-2; [1]),IC50 (VIM-1),further results
O=C(O)/C=C/C(=O)c1ccc(O)cc1 [Compound 1],–,–,IC50 (VIM-2; IC50 (VIM-2)): 637 µM
NC(=O)N/N=C/c1cccc(C(=O)O)c1O [Compound 3],> 1600 µM,–,–
O=C(O)CC1CC(c2ccc(F)cc2)=NO1 (stereo not shown) [Compound 4],557 µM,–,–
CNCc1ccc(-c2cccc(C(=O)O)c2)o1 [Compound 5],> 1600 µM,–,–
O=C(Cc1ccc(Cl)cc1)c1ccc(O)cc1O [Compound 6],111 µM,–,differences between the inhibitory activity with or without excess Zn(II) (VIM-2): no obvious differences; binding to apo-VIM-2 by 1H CPMG NMR (apo-VIM-2): strong binding; also recorded: binds; binding to di-Zn(II) VIM-2 by 1H CPMG NMR (di-Zn(II) VIM-2): strong binding; also recorded: strong binder
NC(=S)N/N=C1\C(=O)Nc2c(C(=O)O)cccc21 [Compound 7],199 µM,–,differences between the inhibitory activity with or without excess Zn(II) (VIM-2): no obvious differences; binding to apo-VIM-2 by 1H CPMG NMR (apo-VIM-2): binding; binding to di-Zn(II) VIM-2 by 1H CPMG NMR (di-Zn(II) VIM-2): binding; also recorded: binds
Cc1ccc(-c2cn3nnc(C(=O)O)c3c(=O)[nH]2)cc1 [Compound 9],439 µM,–,–
Cc1oc2c(c1C(=O)O)C(=O)CC(c1ccccc1)C2 (stereo not shown) [Compound 10],> 1600 µM,–,–
O=C(O)CCC(NS(=O)(=O)c1ccccc1)C(=O)O (stereo not shown) [Compound 11],–,–,IC50 (VIM-2; IC50 (VIM-2)): 1110 µM; IC50 (VIM-2; pIC50 (VIM-2)): 1100 µM
O=C(O)C(=Cc1ccc(-c2ccc(Cl)cc2)o1)C(=O)O [Compound 12],87 µM,–,differences between the inhibitory activity with or without excess Zn(II) (VIM-2): no obvious differences; inhibition of the tested class B MBLs (in words) (class B MBLs): broad-spectrum inhibition; binding to apo-VIM-2 by 1H CPMG NMR (apo-VIM-2): weak binding; also recorded: weakly; binding to di-Zn(II) VIM-2 by 1H CPMG NMR (di-Zn(II) VIM-2): strong binding; also recorded: binds strongly
CN(C)c1ccc(/C=C/C(=O)c2ccccc2C(=O)O)cc1 [Compound 13],135 µM,–,differences between the inhibitory activity with or without excess Zn(II) (VIM-2): no obvious differences; inhibition of the tested class B MBLs (in words) (class B MBLs): broad-spectrum inhibition; binding to apo-VIM-2 by 1H CPMG NMR (apo-VIM-2): weak binding; also recorded: weakly; binding to di-Zn(II) VIM-2 by 1H CPMG NMR (di-Zn(II) VIM-2): strong binding; also recorded: binds strongly
O=C(O)C(Cc1ccc(O)cc1)NC1CCS(=O)(=O)C1 (stereo not shown) [Compound 14],669 µM,–,IC50 (VIM-2; [2]): 661 µM
O=C(O)c1cccc(/C=N/N=C/c2cccc(C(=O)O)c2O)c1O [Compound 18],117 µM,–,binding to apo-VIM-2 by 1H CPMG NMR (apo-VIM-2): binding; also recorded: binds; binding to di-Zn(II) VIM-2 by 1H CPMG NMR (di-Zn(II) VIM-2): binding; also recorded: binds
O=C(O)c1cccc2c1C(=O)N(Cc1cccnc1)C2 [Compound 21],349 µM,> 400 µM,–
O=C(O)c1cccc2c1C(=O)N(Cc1ccc(F)cc1)C2 [Compound 23],250 µM,> 400 µM,–
COc1cc(CN2Cc3cccc(C(=O)O)c3C2=O)cc(OC)c1OC [Compound 26],> 400 µM,> 400 µM,–
CN(C)c1ccc(CN2Cc3cccc(C(=O)O)c3C2=O)cc1 [Compound 27],176 µM,> 400 µM,IC50 (VIM-2; [2]): 174 µM
CC(c1ccccc1)N1Cc2cccc(C(=O)O)c2C1=O (stereo not shown) [Compound 28],168 µM,> 400 µM,IC50 (VIM-2; [2]): 166 µM
COc1ccccc1N1Cc2cccc(C(=O)O)c2C1=O [Compound 31],133 µM,> 400 µM,–
O=C(O)c1cccc2c1C(=O)N(c1ccc(O)c(F)c1)C2 [Compound 35],7.7 µM,> 400 µM,–
C=CCC1c2cccc(C(=O)O)c2C(=O)N1c1ccc(F)cc1 (stereo not shown) [Compound 41],24.6 µM,> 400 µM,–
"C[C@H](CS)C(=O)N1CCC[C@H]1C(=O)O [L-Captopril, reference compound]",–,–,binding to apo-VIM-2 by 1H CPMG NMR (apo-VIM-2): very weak binding; also recorded: very weakly; binding to di-Zn(II) VIM-2 by 1H CPMG NMR (di-Zn(II) VIM-2): strong binding; also recorded: binds strongly
